Laboratory results published in EP0840781B1, “METHODS AND DEVICES FOR THE REMOVAL OF PSORALENS FROM BLOOD PRODUCTS” (Cerus Corporation, priority 1995, dated 1996).
Marks after values point to notes of the source that are not given here.

Key:
[1] = system: Chinese hamster ovary (CHO) cells; experiment: In vitro genotoxicity screen in CHO cells (toxic dose); format: cell-based; settings: approximately 3 hours exposure in the dark, dilutions 1-1000 µg/ml
Text: The positive control was methylmethane sulfonate.
Coverslips were mounted with Permount.

[2] = system: platelets; experiment: Platelet aggregation (ADP and collagen, aggregometer); format: cell-based, human; settings: for (%) Aggregation: T = test unit (150 µM S-59, 3 Joules/cm^2 UVA, RD 8 hours on day 1)
Protocol: To measure the effects of the present compounds and methods of decontamination on platelet function using these four indicators, four samples were prepared for each compound tested, two control samples and two containing compound. […] These were each transferred under sterile conditions to 50 ml centrifuge tubes, then aliquots of each unit were transferred into a second set of 50 ml sterile centrifuge tubes. […] The samples were pipetted gently up and down to mix. […] Samples were treated in one of two different sized bags, having either 3 ml or 8 ml capacity. […] For each compound tested, two control samples without compound were prepared by again removing aliquots of platelet concentrate (17 ml if using an 8 ml bag, 4 ml if using a 3 ml bag) from the same one of the first set of 50 ml centrifuge tubes from which the compound sample was drawn, and dividing into Medibags, as before. […] Then all experimental and control Medibags were placed on a platelet shaker for storage for 5 days.

[3] = system: platelets; experiment: Platelet morphology score; format: cell-based, human; settings: T = test unit (150 µM S-59, 3 Joules/cm^2 UVA, RD 8 hours on day 1)
Protocol: (§1) For the evaluation of in vitro platelet function, platelet samples were withdrawn from both the control and test units before treatment and after treatment on days 2, 5, and 7. The following parameters were analyzed: pH, pO2, pCO2, bicarbonate concentration, platelet count, morphology, aggregation, platelet shape change, hypotonic shock response, lactate production, glucose consumption, ATP secretion, p-selectin expression, and microvesicle formation. Several of these assays, including pH, morphology score, platelet shape change, and hypotonic shock response, have been reported in the literature to correlate with in- vivo post-transfusion recovery and survival. The Student's paired t-test was used for statistical analysis.

[4] = system: GMP-140 expression on platelets; experiment: GMP-140 (p-selectin) expression on platelets, CD62 antibody, flow cytometry; format: cell-based, human; settings: T = test unit (150 µM S-59, 3 Joules/cm^2 UVA, RD 8 hours on day 1)
Protocol: To measure the effects of the present compounds and methods of decontamination on platelet function using these four indicators, four samples were prepared for each compound tested, two control samples and two containing compound. […] These were each transferred under sterile conditions to 50 ml centrifuge tubes, then aliquots of each unit were transferred into a second set of 50 ml sterile centrifuge tubes. […] The samples were pipetted gently up and down to mix. […] Samples were treated in one of two different sized bags, having either 3 ml or 8 ml capacity. […] For each compound tested, two control samples without compound were prepared by again removing aliquots of platelet concentrate (17 ml if using an 8 ml bag, 4 ml if using a 3 ml bag) from the same one of the first set of 50 ml centrifuge tubes from which the compound sample was drawn, and dividing into Medibags, as before. […]

[5] = system: platelets; experiment: Platelet shape change; format: cell-based, human; settings: T = test unit (150 µM S-59, 3 Joules/cm^2 UVA, RD 8 hours on day 1)
Protocol: Platelets are able to regain their ability to change shape following transfer from the RD and incubation in a PL 2410 Plastic container (Baxter) in an equal volume of autologous plasma.
as §1

[6] = system: platelets; experiment: ATP content / ATP secretion of platelets; format: cell-based, human; settings: T = test unit (150 µM S-59, 3 Joules/cm^2 UVA, RD 8 hours on day 1)
Protocol: Samples were removed from the units after 24 hours and were analyzed for platelet count and pH. After 5 days, samples were taken and also analyzed for platelet count and pH, as well as ATP content and activation by GMP-140. Controls included a sample of PCD-treated PC without adsorbent (no-adsorbent control) and a sample of PC that was not treated. The results for each of the platelet function assays are present in Table G (the "*" In Table G indicates a contact time of three hours only). TABLE G
as §1

[7] = system: platelets suspended in 35% plasma/65% PAS III; experiment: Partitioning and distribution of S-59 in platelet concentrate before and after UVA (3H-S-59, HPLC); settings: C0 = 50 µM (FIG. 25A)
Text: […] When designing a "capture" or "scrub" device for psoralen removal, an important consideration is the identification and quantification of the residual levels of low molecular weight photoproducts. Several properties of the platelet mixture (e.g., lipid content, platelet content, hemoglobin/RBC content) can affect the final partitioning of psoralen and the amount of each photoproduct that must be removed during the capture or scrub process.
Upon addition of S-59 to platelets, the S-59 rapidly partitions, establishing an equilibrium between S-59 in the plasma and S-59 within the platelets. […] In addition, higher percentages of S-59 will partition to the platelets if long incubation periods (e.g., greater than 60 minutes) occur between the addition of S-59 and illumination with UVA. The amount of S-59 which partitions to the platelets ultimately determines how much S-59 remains associated with platelets, how much is associated with plasma macromolecules, and how much remains as free photoproduct.
During the UVA illumination process, S-59 undergoes a photochemical reaction to form several low molecular weight photoproducts in addition to associating with macromolecules in both the platelet and the plasma fractions. […]
The S-59 which is not amenable to removal by the scrub/capture process can also be monitored using ^3H-labeled S-59. […]

SMILES	genotoxic (toxic) dose [1]	reduction in aggregation from the day 1 control ([2]; 100 µM compound, 5 Joules/cm^2, 5 days storage (FIG. 21B))	(%) Aggregation ([2]; Day 2)	(%) Aggregation ([2]; Day 5)	(%) Aggregation ([2]; Day 7)	Morphology (Out Of 400) ([3]; Day 2)	Morphology (Out Of 400) ([3]; Day 5)	Morphology (Out Of 400) ([3]; Day 7)	(%) p-Selectin-Positive ([4]; Day 2)	(%) p-Selectin-Positive ([4]; Day 5)	(%) p-Selectin-Positive ([4]; Day 7)	Platelet Shape Change ([5]; Day 2)	Platelet Shape Change ([5]; Day 5)	Platelet Shape Change ([5]; Day 7)	ATP ([6]; Day 2)	ATP ([6]; Day 5)	ATP ([6]; Day 7)	time to S-59 equilibrium (uptake by platelets) [7]
Cc1oc2c(C)c3oc(=O)cc(C)c3cc2c1CN [AMT, 4'-Aminomethyl-4,5',8-trimethylpsoralen, reference compound]	30 µg/mL																	
Cc1oc2c(C)c3oc(=O)cc(C)c3cc2c1COCCN [Compound 2, 4'-(4-amino-2-oxa)butyl-4,5',8-trimethylpsoralen]		approximately 8%	88±4%	81±7%	81±4%	302±16	290±20	274±12	49±5 %	58±5%	60±7%	1.0±0.1	0.9±0.1	0.9±0.3	1.0±0.1 Nmoles Per 10* Platelets	0.7±0.2 Nmoles Per 10* Platelets	0.6±0.2 Nmoles Per 10* Platelets	approximately two
